Measured values published in patent US10118935B2, “Melampomagnolide B dimers” (priority 2014, dated 2018).

Tests used:
BT-549 = assay: NCI 60 cell line five dose, Breast Cancer
SK-MEL-2 = assay: NCI 60 cell line five dose, Melanoma
OVCAR-8 = assay: NCI 60 cell line five dose, Ovarian Cancer
786-0 = assay: NCI 60 cell line five dose, Renal Cancer
UACC-62 = assay: NCI 60 cell line five dose, Melanoma
KM12 = assay: NCI 60 cell line five dose, Colon Cancer
RXF 393 = assay: NCI 60 cell line five dose, Renal Cancer
M14 = assay: NCI 60 cell line five dose, Melanoma
K-562 = assay: NCI 60 cell line five dose, Leukemia
A549/ATCC = assay: NCI 60 cell line five dose, Non-Small Cell Lung Cancer
HCC-2998 = assay: NCI 60 cell line five dose, Colon Cancer
LOX IMVI = assay: NCI 60 cell line five dose, Melanoma
SR = assay: NCI 60 cell line five dose, Leukemia

In the case of `C=C1C(=O)O[C@H]2[C@H]1CC/C(COC(=O)NCCCCCCCCNC(=O)OC/C1=C/CC[C@@]3(C)O[C@H]3[C@H]3OC(=O)C(=C)[C@@H]3CC1)=C\CC[C@@]1(C)O[C@@H]21` [JVM 3-62, bis(((1aR,7aS, 10aS, 10bS, E)-1a-Methyl-8-methylene-9-oxo-1a,2,3,6,7,7a,8,9,10a,10b-decahydrooxireno[2′,3′:9,10]cyclodeca[1,2-b]furan-5-yl)methyl)octane-1,8-diyldicarbamate], the TGI (BT-549; molar) is reported as 7.48E−7, the CC50 (BT-549; read-out: LC50, molar) is reported as 3570 nM and the “Percent Growth” value (SK-MEL-2; Log10 Concentration −4.0) is reported as −68%. The “Percent Growth” value (SK-MEL-2; Log10 Concentration −5.0) was −45%, the “Percent Growth” value (SK-MEL-2; Log10 Concentration −6.0) was 36% and the “Percent Growth” value (SK-MEL-2; Log10 Concentration −7.0) was 100%. For the same compound, the “Percent Growth” value (SK-MEL-2; Log10 Concentration −8.0) was 92%, the GI50 (SK-MEL-2; molar) was 601 nM and the TGI (SK-MEL-2; molar) was 2.79E−6. For the same compound, the “Percent Growth” value (OVCAR-8; Log10 Concentration −4.0) was −55%, the “Percent Growth” value (OVCAR-8; Log10 Concentration −5.0) was −51% and the “Percent Growth” value (OVCAR-8; Log10 Concentration −6.0) was 6%. For the same compound, the “Percent Growth” value (OVCAR-8; Log10 Concentration −7.0) was 96%, the “Percent Growth” value (OVCAR-8; Log10 Concentration −8.0) was 100% and the GI50 (OVCAR-8; molar) was 326 nM. For the same compound, the CC50 (OVCAR-8; read-out: LC50, molar) was 6770 nM, the “Percent Growth” value (786-0; Log10 Concentration −4.0) was −81% and the “Percent Growth” value (786-0; Log10 Concentration −5.0) was −81%. For the same compound, the “Percent Growth” value (786-0; Log10 Concentration −6.0) was −32%, the “Percent Growth” value (786-0; Log10 Concentration −7.0) was 95% and the “Percent Growth” value (786-0; Log10 Concentration −8.0) was 95%. The GI50 (786-0; molar) was 244 nM, the CC50 (786-0; read-out: LC50, molar) was 2930 nM and the “Percent Growth” value (UACC-62; Log10 Concentration −4.0) was −77%. For the same compound, the “Percent Growth” value (UACC-62; Log10 Concentration −5.0) was −84%, the “Percent Growth” value (UACC-62; Log10 Concentration −6.0) was −39% and the “Percent Growth” value (UACC-62; Log10 Concentration −7.0) was 87%. For the same compound, the “Percent Growth” value (UACC-62; Log10 Concentration −8.0) was 96%, the GI50 (UACC-62; molar) was 197 nM and the TGI (UACC-62; molar) was 4.88E−7. The CC50 (UACC-62; read-out: LC50, molar) was 1720 nM, the “Percent Growth” value (KM12; Log10 Concentration −4.0) was −83% and the “Percent Growth” value (KM12; Log10 Concentration −5.0) was −66%. For the same compound, the “Percent Growth” value (KM12; Log10 Concentration −6.0) was 65%, the “Percent Growth” value (KM12; Log10 Concentration −7.0) was 105% and the “Percent Growth” value (KM12; Log10 Concentration −8.0) was 102%. The GI50 (KM12; molar) was 1290 nM, the CC50 (KM12; read-out: LC50, molar) was 7490 nM and the “Percent Growth” value (RXF 393; Log10 Concentration −4.0) was −76%. The “Percent Growth” value (RXF 393; Log10 Concentration −5.0) was −92%, the “Percent Growth” value (RXF 393; Log10 Concentration −6.0) was −82% and the “Percent Growth” value (RXF 393; Log10 Concentration −7.0) was 85%. For the same compound, the “Percent Growth” value (RXF 393; Log10 Concentration −8.0) was 96%, the GI50 (RXF 393; molar) was 162 nM and the TGI (RXF 393; molar) was 3.22E−7. The CC50 (RXF 393; read-out: LC50, molar) was 640 nM, the “Percent Growth” value (M14; Log10 Concentration −4.0) was −76% and the “Percent Growth” value (M14; Log10 Concentration −5.0) was −71%. For the same compound, the “Percent Growth” value (M14; Log10 Concentration −6.0) was −10%, the “Percent Growth” value (M14; Log10 Concentration −7.0) was 95% and the “Percent Growth” value (M14; Log10 Concentration −8.0) was 95%. It also gave a GI50 (M14; molar) of 272 nM, a TGI (M14; molar) of 8.00E−7 and a CC50 (M14; read-out: LC50, molar) of 4530 nM. The “Percent Growth” value (K-562; Log10 Concentration −4.0) was −44%, the “Percent Growth” value (K-562; Log10 Concentration −5.0) was −14% and the “Percent Growth” value (K-562; Log10 Concentration −6.0) was 2%. For the same compound, the “Percent Growth” value (K-562; Log10 Concentration −7.0) was 107%, the “Percent Growth” value (K-562; Log10 Concentration −8.0) was 103% and the GI50 (K-562; molar) was 349 nM. The TGI (K-562; molar) was 1.37E−6, the CC50 (K-562; read-out: LC50, molar) was greater than 100000 nM and the “Percent Growth” value (A549/ATCC; Log10 Concentration −4.0) was −84%. The “Percent Growth” value (A549/ATCC; Log10 Concentration −5.0) was −72%, the “Percent Growth” value (A549/ATCC; Log10 Concentration −6.0) was 87% and the “Percent Growth” value (A549/ATCC; Log10 Concentration −7.0) was 96%. The “Percent Growth” value (A549/ATCC; Log10 Concentration −8.0) was 96%, the GI50 (A549/ATCC; molar) was 1700 nM and the TGI (A549/ATCC; molar) was 3.51E−6. The CC50 (A549/ATCC; read-out: LC50, molar) was 7260 nM, the “Percent Growth” value (HCC-2998; Log10 Concentration −4.0) was −92% and the “Percent Growth” value (HCC-2998; Log10 Concentration −5.0) was −93%. The “Percent Growth” value (HCC-2998; Log10 Concentration −6.0) was 63%, the “Percent Growth” value (HCC-2998; Log10 Concentration −7.0) was 98% and the “Percent Growth” value (HCC-2998; Log10 Concentration −8.0) was 100%. It also gave a GI50 (HCC-2998; molar) of 1200 nM, a TGI (HCC-2998; molar) of 2.52E−6 and a CC50 (HCC-2998; read-out: LC50, molar) of 5280 nM. For the same compound, the “Percent Growth” value (LOX IMVI; Log10 Concentration −4.0) was −81%, the “Percent Growth” value (LOX IMVI; Log10 Concentration −5.0) was −90% and the “Percent Growth” value (LOX IMVI; Log10 Concentration −6.0) was −69%. The “Percent Growth” value (LOX IMVI; Log10 Concentration −7.0) was 90%, the “Percent Growth” value (LOX IMVI; Log10 Concentration −8.0) was 98% and the GI50 (LOX IMVI; molar) was 178 nM. For the same compound, the CC50 (LOX IMVI; read-out: LC50, molar) was 761 nM, the “Percent Growth” value (SR; Log10 Concentration −4.0) was −31% and the “Percent Growth” value (SR; Log10 Concentration −5.0) was −26%. For the same compound, the “Percent Growth” value (SR; Log10 Concentration −6.0) was 6%, the “Percent Growth” value (SR; Log10 Concentration −7.0) was 95% and the “Percent Growth” value (SR; Log10 Concentration −8.0) was 98%. The GI50 (SR; molar) was 317 nM and the CC50 (SR; read-out: LC50, molar) was greater than 100000 nM.
